The numbers were not newly measured in patent US11202786B2, “Synthetic bile acid compositions and methods” (ALLERGAN SALES, LLC, priority 2007, dated 2021), which cites them from elsewhere.

For data set [1] the following is noted: neutral pH.
Data set [2] addresses albumin (Homo sapiens, UniProt P02768). The note with it: 0.4 mg/mL deoxycholate (comparable to the fasting state), in the presence of 26 mg/mL of albumin.

Chain of albumin (P02768 25-609): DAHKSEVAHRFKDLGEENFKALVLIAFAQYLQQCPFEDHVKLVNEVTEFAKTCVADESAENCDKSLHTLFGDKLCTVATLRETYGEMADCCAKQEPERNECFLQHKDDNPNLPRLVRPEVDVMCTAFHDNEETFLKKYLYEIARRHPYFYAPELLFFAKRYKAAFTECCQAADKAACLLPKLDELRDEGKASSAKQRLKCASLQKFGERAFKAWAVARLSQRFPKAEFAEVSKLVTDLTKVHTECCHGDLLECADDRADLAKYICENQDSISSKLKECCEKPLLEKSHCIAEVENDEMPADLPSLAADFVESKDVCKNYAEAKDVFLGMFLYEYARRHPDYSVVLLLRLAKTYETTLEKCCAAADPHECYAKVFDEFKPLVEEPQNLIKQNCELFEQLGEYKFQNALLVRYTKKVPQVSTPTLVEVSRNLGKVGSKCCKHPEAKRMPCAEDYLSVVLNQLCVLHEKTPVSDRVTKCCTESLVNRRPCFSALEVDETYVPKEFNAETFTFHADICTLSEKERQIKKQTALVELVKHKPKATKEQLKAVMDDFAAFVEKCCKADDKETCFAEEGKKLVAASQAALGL

As to `C[C@H](CCC(=O)[O-])[C@H]1CC[C@H]2[C@@H]3CC[C@@H]4C[C@H](O)CC[C@]4(C)[C@H]3C[C@H](O)[C@]12C.[Na+]` [Deoxycholate, sodium deoxycholate], the solubility in acetone result (acetone, compared with alcohol) is “even less soluble”. The soluble in water (water) is listed as 333 mg/mL. For the same compound, in data set [1], the critical micelle concentration entry is on record as “approximately 2.4 mg/mL”. Besides, in data set [2], the bound to albumin is on record as 98%.
